Drawing on PubChem BioAssay AID330 (DTP/NCI, 2004), this text covers T/C for 25 compounds.

The test system of this test is P388 leukemia ip, CD2F1 mice, survival T/C. The experiment in a line: NCI In Vivo Anticancer Drug Screen. Data for tumor model P388 Leukemia (intraperitoneal) in CD2F1 (CDF1) mice. Conditions: endpoint: median survival time, higher = longer survival. The method in brief: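 Mice carrying the transplanted tumor received test compound or vehicle. Survival was recorded in each group, and the value is the treated-group measurement divided by that of the vehicle-treated control group.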

[1] abbreviates: dose: 1.0 mg/kg/injection, schedule: Q01DX009 (ip), vehicle: saline with Tween-80.
Where [2] appears, read: dose: 50.0 mg/kg/injection, schedule: Q01DX005 (ip), vehicle: saline with Tween-80.
The mark [3] stands for this setting: dose: 100.0 mg/kg/injection, schedule: Q01DX005 (ip), vehicle: saline with Tween-80.
Setting [4] is: dose: 200.0 mg/kg/injection, schedule: Q01DX005 (ip), vehicle: saline with Tween-80.
Where [5] appears, read: dose: 50.0 mg/kg/injection, schedule: Q01DX005 (ip), vehicle: Klucel (hydroxypropylcellulose) (HPC).
Setting [6] is: dose: 100.0 mg/kg/injection, schedule: Q01DX005 (ip), vehicle: Klucel (hydroxypropylcellulose) (HPC).
Setting [7] is: dose: 200.0 mg/kg/injection, schedule: Q01DX005 (ip), vehicle: Klucel (hydroxypropylcellulose) (HPC).
The mark [8] stands for this setting: dose: 12.5 mg/kg/injection, schedule: Q01DX009 (ip), vehicle: Klucel (hydroxypropylcellulose) (HPC).
[9] abbreviates: dose: 12.5 mg/kg/injection, schedule: Q01DX009 (ip), vehicle: saline with Tween-80.

Each structure is given as a SMILES string. Where “and” joins values, the source holds several entries; their conditions need not be identical. Identical values can stand only once. Inconclusive results and toxic doses are left out. Peptide text beside a SMILES is read from it. * marks the point of attachment. Trt = c1ccc(C(c2ccccc2)(c2ccccc2)*)cc1

Turning to `CN(C)c1ccc(N=Nc2ccc([As](=O)(O)O)cc2)cc1`, the T/C runs as follows: (dose: 0.5 mg/kg/injection, schedule: Q01DX009 (ip), vehicle: saline with Tween-80) 100 % of control; under setting [1], 95 % of control.
For `CC(C)(C)NC(=S)N/N=C/c1ccccc1O`, the T/C by setting is: under setting [2], 108 % of control; under setting [3], 109 % of control; under setting [4], 107 % of control.
Take `O=C1OCc2nc3ccccc3cc21`: the T/C (dose: 50.0 mg/kg/injection, schedule: Q04DX003 (ip), vehicle: Klucel (hydroxypropylcellulose) (HPC)) was 100 % of control; the T/C (dose: 100.0 mg/kg/injection, schedule: Q04DX003 (ip), vehicle: Klucel (hydroxypropylcellulose) (HPC)) was 98 % of control; the T/C (dose: 200.0 mg/kg/injection, schedule: Q04DX003 (ip), vehicle: Klucel (hydroxypropylcellulose) (HPC)) was 106 % of control.
Turning to `Cc1cc(=O)oc2cc(NC(=O)C(CCCN=C(N)N)NC(=O)OCc3ccccc3)ccc12` (stereo not given), the T/C reads like this: under setting [2], 97 % of control; under setting [3], 98 % of control; under setting [4], 94 % of control.
Consider `CC1CCC(n2cnc3c(Cl)ncnc32)O1` (stereo not given), for which the T/C (dose: 25.0 mg/kg/injection, schedule: Q01DX005 (ip), vehicle: Klucel (hydroxypropylcellulose) (HPC)) was 97 % of control; the T/C under setting [5] is 103 % of control; the T/C under setting [6] is 110 % of control; the T/C under setting [7] was 112 % of control; the T/C (dose: 400.0 mg/kg/injection, schedule: Q01DX005 (ip), vehicle: Klucel (hydroxypropylcellulose) (HPC)) is 114 % of control.
As to `O=C1CN2Cc3c(sc4c3CCCC4)N=C2N1`, the T/C is 106 % of control under setting [5], 102 % of control under setting [6] and 99 % of control under setting [7].
For the compound `COc1ccc(C2=C(Cl)C(=O)N(c3ccccc3Cl)C(=O)C2(Cl)Cl)cc1`, the T/C is, setting by setting: (dose: 100.0 mg/kg/injection, schedule: Q04DX002 (ip), vehicle: Klucel (hydroxypropylcellulose) (HPC)) 105 % of control; (dose: 200.0 mg/kg/injection, schedule: Q04DX002 (ip), vehicle: Klucel (hydroxypropylcellulose) (HPC)) 112 % of control; (dose: 400.0 mg/kg/injection, schedule: Q04DX002 (ip), vehicle: Klucel (hydroxypropylcellulose) (HPC)) 113 % of control.
Consider `CCCCN(CCNc1ccc(C)c2sc3ccccc3c(=O)c12)CC(C)O` (stereo not given), for which the T/C under setting [2] is 101 % of control, the T/C under setting [3] was 104 % of control and the T/C under setting [4] was 101 % of control.
In the case of `CCN(CC)Cc1c(O)c(N=Nc2cccc3ccccc23)cc2ccccc12`, the T/C was 111 % of control (dose: 3.0 mg/kg/injection, schedule: Q01DX009 (ip), vehicle: Klucel (hydroxypropylcellulose) (HPC)); 107 % of control (dose: 6.0 mg/kg/injection, schedule: Q01DX009 (ip), vehicle: Klucel (hydroxypropylcellulose) (HPC)); 104 % of control (dose: 12.0 mg/kg/injection, schedule: Q01DX009 (ip), vehicle: Klucel (hydroxypropylcellulose) (HPC)); 113 % of control under setting [8].
With `COc1ccc(-c2cnc3[nH]c(=O)[nH]c(=O)c3n2)cc1`, the T/C (dose: 100.0 mg/kg/injection, schedule: Q01DX001 (ip), vehicle: saline) was 100 % of control; the T/C (dose: 200.0 mg/kg/injection, schedule: Q01DX001 (ip), vehicle: saline) is 97 % of control; the T/C (dose: 400.0 mg/kg/injection, schedule: Q01DX001 (ip), vehicle: saline) was 90 % of control.
For `O=C1Nc2ccccc2C12Nc1ccccc1S2` (stereo not given), the T/C is 100 % of control under setting [2], 101 % of control under setting [3] and 110 % of control under setting [4].
In the case of `C[N+](C)(C)c1ncnc2c1ncn2C1CC(O)C(CO)O1` (stereo not given), the T/C is 95 % of control (dose: 50.0 mg/kg/injection, schedule: Q01DX005 (ip), vehicle: saline); 98 % of control (dose: 100.0 mg/kg/injection, schedule: Q01DX005 (ip), vehicle: saline); 101 % of control (dose: 200.0 mg/kg/injection, schedule: Q01DX005 (ip), vehicle: saline).
Consider `CSCSCC(CO)NC(=O)C(Cl)Cl` (stereo not given), for which the T/C was 102 % of control (dose: 50.0 mg/kg/injection, schedule: Q01DX009 (ip), vehicle: water); 106 % of control (dose: 200.0 mg/kg/injection, schedule: Q01DX009 (ip), vehicle: water); 113 % of control (dose: 400.0 mg/kg/injection, schedule: Q01DX009 (ip), vehicle: water).
As for `Clc1ccccc1/C=C/C=C1c2ccccc2-c2ccccc21`, the T/C under setting [9] was 90 % of control; the T/C (dose: 25.0 mg/kg/injection, schedule: Q01DX009 (ip), vehicle: saline with Tween-80) is 104 % of control; the T/C (dose: 50.0 mg/kg/injection, schedule: Q01DX009 (ip), vehicle: saline with Tween-80) is 113 % of control; the T/C (dose: 100.0 mg/kg/injection, schedule: Q04DX003 (ip), vehicle: saline with Tween-80) was 95 % of control; the T/C (dose: 200.0 mg/kg/injection, schedule: Q04DX003 (ip), vehicle: saline with Tween-80) was 109 % of control; the T/C (dose: 400.0 mg/kg/injection, schedule: Q04DX003 (ip), vehicle: saline with Tween-80) was 109 % of control.
Turning to `CC1=NCC(C)c2ccccc21` (stereo not given), the T/C reads like this: (dose: 6.25 mg/kg/injection, schedule: Q01DX009 (ip), vehicle: saline with Tween-80) 96 % of control; under setting [9], 95 % of control.
For the compound `CC(=O)/C(=C(\c1ccccc1)N1CCOCC1)N1CCOCC1`, the T/C runs as follows: under setting [5], 99 % of control; under setting [6], 100 % of control; under setting [7], 107 % of control.
With `NC(=O)c1csc(C2OC3COP(=O)(O)OC3C2O)n1` (stereo not given), the T/C was 105 % of control (dose: 12.5 mg/kg/injection, schedule: Q01DX005 (ip), vehicle: water); 105 % of control (dose: 25.0 mg/kg/injection, schedule: Q01DX005 (ip), vehicle: water); 114 % of control and 118 % of control (dose: 50.0 mg/kg/injection, schedule: Q01DX005 (ip), vehicle: water); 123 % of control and 124 % of control (dose: 100.0 mg/kg/injection, schedule: Q01DX005 (ip), vehicle: water); 152 % of control (dose: 200.0 mg/kg/injection, schedule: Q01DX005 (ip), vehicle: water); 155 % of control (dose: 400.0 mg/kg/injection, schedule: Q01DX005 (ip), vehicle: water).
As for `CC(C)COC1CN=NN1/C=C1\CCOC1=O` (stereo not given), the T/C by setting is: (dose: 60.0 mg/kg/injection, schedule: Q01DX005 (ip), vehicle: saline with Tween-80) 102 % of control; (dose: 120.0 mg/kg/injection, schedule: Q01DX005 (ip), vehicle: saline with Tween-80) 107 % of control; (dose: 240.0 mg/kg/injection, schedule: Q01DX005 (ip), vehicle: saline with Tween-80) 100 % of control.
For `CC1=C(C)CP(=O)(c2ccccc2)C1`, the T/C was 96 % of control (dose: 25.0 mg/kg/injection, schedule: Q01DX009 (ip), vehicle: saline); 93 % of control (dose: 50.0 mg/kg/injection, schedule: Q01DX009 (ip), vehicle: saline); 95 % of control (dose: 100.0 mg/kg/injection, schedule: Q01DX009 (ip), vehicle: saline); 95 % of control (dose: 200.0 mg/kg/injection, schedule: Q01DX009 (ip), vehicle: saline).
As for `CCC1CN2CCc3cc(OC)c(OC)cc3C2CC1CCCl` (stereo not given), the T/C by setting is: under setting [8], 94 % of control; (dose: 25.0 mg/kg/injection, schedule: Q01DX009 (ip), vehicle: Klucel (hydroxypropylcellulose) (HPC)) 103 % of control; (dose: 50.0 mg/kg/injection, schedule: Q01DX009 (ip), vehicle: Klucel (hydroxypropylcellulose) (HPC)) 103 % of control and 106 % of control.
Take `CCCCCCCCSC(SCCCCCCCC)C(O)C(O)C(O)CO` (stereo not given): the T/C reads like this: under setting [2], 93 % of control; under setting [3], 109 % of control.
In the case of `COC(=O)C(CC(C)C)NC(=O)C(N)CSC(c1ccccc1)(c1ccccc1)c1ccccc1` (stereo not given) (H-Cys(Trt)-Leu-OMe; configuration not given here), under “dose: 60.0 mg/kg/injection, schedule: Q01DX005 (ip), vehicle: Klucel (hydroxypropylcellulose) (HPC)”, the T/C is 113 % of control.
Turning to `O=C(COc1cc(Cl)c(Cl)cc1Cl)OCCOc1cc(Cl)c(Cl)cc1Cl`, the T/C runs as follows: under setting [1], 100 % of control; (dose: 2.0 mg/kg/injection, schedule: Q01DX009 (ip), vehicle: saline with Tween-80) 100 % of control; (dose: 4.0 mg/kg/injection, schedule: Q01DX009 (ip), vehicle: saline with Tween-80) 95 % of control.
On to `Oc1ccc(C2Oc3ccccc3C=C2c2ccccc2)cc1` (stereo not given), for which the T/C is 94 % of control under setting [2], 89 % of control under setting [3] and 96 % of control under setting [4].
For `COC(=S)SSC(=S)NCC(C)NC(=S)SSC(=S)OC` (stereo not given), the T/C is, setting by setting: under setting [5], 103 % of control; under setting [6], 103 % of control; under setting [7], 105 % of control.
